Measurements published in patent US20260191968A1, “PROTAC DEGRADERS OF MLLT1 AND/OR MLLT3” (DARK BLUE THERAPEUTICS LTD, priority 2024, published 2026).

Molecular target: T1, MLLT1 (Homo sapiens, UniProt Q03111)
T1 construct: host or cells: MV4-11
T1 sequence (Q03111 1-559): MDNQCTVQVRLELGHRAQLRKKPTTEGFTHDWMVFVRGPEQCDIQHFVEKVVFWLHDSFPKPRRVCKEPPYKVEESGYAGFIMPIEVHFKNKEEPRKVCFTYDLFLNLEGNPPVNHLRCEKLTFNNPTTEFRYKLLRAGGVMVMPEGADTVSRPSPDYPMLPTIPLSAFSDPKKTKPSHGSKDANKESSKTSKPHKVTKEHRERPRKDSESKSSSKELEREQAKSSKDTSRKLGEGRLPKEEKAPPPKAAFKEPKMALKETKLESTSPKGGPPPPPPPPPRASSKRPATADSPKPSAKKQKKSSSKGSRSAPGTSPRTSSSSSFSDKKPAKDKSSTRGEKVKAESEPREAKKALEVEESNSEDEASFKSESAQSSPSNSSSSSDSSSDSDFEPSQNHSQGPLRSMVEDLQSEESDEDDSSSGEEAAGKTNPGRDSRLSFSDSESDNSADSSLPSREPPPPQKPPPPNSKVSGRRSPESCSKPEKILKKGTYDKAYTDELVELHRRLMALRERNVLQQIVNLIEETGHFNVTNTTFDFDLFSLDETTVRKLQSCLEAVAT
Test: MLLT1 degradation assay in MV4-11 cells (JESS chemiluminescent detection), three concentrations, 24 h
Type: cell-based
Details: with respect to DMSO control
Method: MLLT1 degradation efficacy of compounds were tested in an automated chemiluminescent detection system (JESS, Cat #004-650). […] 10 mM DMSO stocks were prepared, and cells were treated with three concentrations of test compounds viz. 1000, 100 and 10 nM at a final DMSO concentration of 0.1% and incubated for 24 h at 37° C., 5% CO2. […] Post run, data were analysed using “Compass for SW” software for chemiluminescent detection. The peak area for each band was used for the calculation of MLLT1 degradation with respect to DMSO control. Data is shown as “MLLT1% degradation”.

Compound | MLLT1% Degradation @ 0.01 μM | MLLT1% Degradation @ 0.1 μM | MLLT1% Degradation @ 1 μM
CCN1CCC[C@@H]1c1cc2cnc(NC(=O)c3ccc(CCCCC#Cc4cccc5c4CN(C4CCC(=O)NC4=O)C5=O)nc3)cc2[nH]1 (stereo partly drawn) [Example 74, 6-(6-(2-(2,6-dioxopiperidin-3-yl)-1-oxoisoindolin-4-yl)hex-5-yn-1-yl)-N-(2-((R)-1-ethylpyrrolidin-2-yl)-1H-pyrrolo[3,2-c]pyridin-6-yl) nicotinamide] | B (Category B: 50% ≤ B < 75% degradation) | B (Category B: 50% ≤ B < 75% degradation) | B (Category B: 50% ≤ B < 75% degradation)
CN1CCC[C@@H]1c1cc2cnc(NC(=O)c3cc(F)c(CCCC#Cc4cccc5c4CN(C4CCC(=O)NC4=O)C5=O)c(F)c3)cc2[nH]1 (stereo partly drawn) [Example 84, 4-(5-(2-(2,6-dioxopiperidin-3-yl)-1-oxoisoindolin-4-yl)pent-4-yn-1-yl)-3,5-difluoro-N-(2-((R)-1-methylpyrrolidin-2-yl)-1H-pyrrolo[3,2-c]pyridin-6-yl)benzamide] | B (Category B: 50% ≤ B < 75% degradation) | A (Category A: A ≥ 75% degradation) | A (Category A: A ≥ 75% degradation)
CN1CCC[C@@H]1c1cc2cnc(NC(=O)c3ccc(N4CCC(CN5CCN(c6cccc7c6CN(C6CCC(=O)NC6=O)C7=O)CC5)CC4)cc3)cc2[nH]1 (stereo partly drawn) [Example 92, 4-(4-((4-(2-(2,6-dioxopiperidin-3-yl)-1-oxoisoindolin-4-yl)piperazin-1-yl)methyl)piperidin-1-yl)-N-(2-((R)-1-methylpyrrolidin-2-yl)-1H-pyrrolo[3,2-c]pyridin-6-yl)benzamide] | B (Category B: 50% ≤ B < 75% degradation) | B (Category B: 50% ≤ B < 75% degradation) | B (Category B: 50% ≤ B < 75% degradation)
CN1CCC[C@@H]1c1cc2cnc(NC(=O)c3ccc(CCCC#Cc4cccc(C(=O)N[C@H]5CCC(=O)NC5=O)n4)cc3)cc2[nH]1 [Example 97, N—((S)-2,6-dioxopiperidin-3-yl)-6-(5-(4-((2-((R)-1-methylpyrrolidin-2-yl)-1H-pyrrolo[3,2-c]pyridin-6-yl)carbamoyl)phenyl)pent-1-yn-1-yl)picolinamide] | C (Category C: 25% ≤ C < 50% degradation) | B (Category B: 50% ≤ B < 75% degradation) | B (Category B: 50% ≤ B < 75% degradation)
CN1CCC[C@@H]1c1cc2cnc(NC(=O)c3ccc(CCCC#Cc4cc5c(cc4F)C(=O)N(C4CCC(=O)NC4=O)C5)cc3)cc2[nH]1 (stereo partly drawn) [Example 106, 4-(5-(2-(2,6-dioxopiperidin-3-yl)-6-fluoro-1-oxoisoindolin-5-yl)pent-4-yn-1-yl)-N-(2-((R)-1-methylpyrrolidin-2-yl)-1H-pyrrolo[3,2-c]pyridin-6-yl)benzamide] | B (Category B: 50% ≤ B < 75% degradation) | A (Category A: A ≥ 75% degradation) | A (Category A: A ≥ 75% degradation)
CN1CCC[C@@H]1c1cc2cnc(NC(=O)c3ccc(CCCC#Cc4cccc5c4C(=O)N(C4CCC(=O)NC4=O)C5=O)cc3)cc2[nH]1 (stereo partly drawn) [Example 110, 4-(5-(2-(2,6-dioxopiperidin-3-yl)-1,3-dioxoisoindolin-4-yl)pent-4-yn-1-yl)-N-(2-((R)-1-methylpyrrolidin-2-yl)-1H-pyrrolo[3,2-c]pyridin-6-yl)benzamide] | C (Category C: 25% ≤ C < 50% degradation) | A (Category A: A ≥ 75% degradation) | A (Category A: A ≥ 75% degradation)
CN1CCC[C@@H]1c1cc2cnc(NC(=O)c3ccc(CCCCC#Cc4cc5c(cc4F)C(=O)N(C4CCC(=O)NC4=O)C5)cc3F)cc2[nH]1 (stereo partly drawn) [Example 114, 4-(6-(2-(2,6-dioxopiperidin-3-yl)-6-fluoro-1-oxoisoindolin-5-yl)hex-5-yn-1-yl)-2-fluoro-N-(2-((R)-1-methylpyrrolidin-2-yl)-1H-pyrrolo[3,2-c]pyridin-6-yl)benzamide] | D (Category D: D < 25% degradation) | C (Category C: 25% ≤ C < 50% degradation) | C (Category C: 25% ≤ C < 50% degradation)
COc1nc(N2CCN(CC3CCN(c4cccc5c4CN(C4CCC(=O)NC4=O)C5=O)CC3)CC2)ccc1C(=O)Nc1cc2[nH]c([C@H]3CCCN3C)cc2cn1 (stereo partly drawn) [Example 126, 6-(4-((1-(2-(2,6-dioxopiperidin-3-yl)-1-oxoisoindolin-4-yl)piperidin-4-yl)methyl)piperazin-1-yl)-2-methoxy-N-(2-((R)-1-methylpyrrolidin-2-yl)-1H-pyrrolo[3,2-c]pyridin-6-yl) nicotinamide] | C (Category C: 25% ≤ C < 50% degradation) | C (Category C: 25% ≤ C < 50% degradation) | C (Category C: 25% ≤ C < 50% degradation)
C[C@H]1CN(CC2CCN(c3cccc4c3CN(C3CCC(=O)NC3=O)C4=O)CC2)CCN1c1ccc(C(=O)Nc2cc3[nH]c([C@H]4CCCN4C)cc3cn2)cn1 (stereo partly drawn) [Example 127, 6-((2S)-4-((1-(2-(2,6-dioxopiperidin-3-yl)-1-oxoisoindolin-4-yl)piperidin-4-yl)methyl)-2-methylpiperazin-1-yl)-N-(2-((R)-1-methylpyrrolidin-2-yl)-1H-pyrrolo[3,2-c]pyridin-6-yl)nicotinamide] | B (Category B: 50% ≤ B < 75% degradation) | B (Category B: 50% ≤ B < 75% degradation) | B (Category B: 50% ≤ B < 75% degradation)
CN1CCC[C@@H]1c1cc2cnc(NC(=O)c3ccc(CCCC4CCN(c5cccc6c5C(=O)N(C5CCC(=O)NC5=O)C6=O)CC4)cc3)cc2[nH]1 (stereo partly drawn) [Example 128, 4-(3-(1-(2-(2,6-dioxopiperidin-3-yl)-1,3-dioxoisoindolin-4-yl)piperidin-4-yl)propyl)-N-(2-((R)-1-methylpyrrolidin-2-yl)-1H-pyrrolo[3,2-c]pyridin-6-yl)benzamide] | C (Category C: 25% ≤ C < 50% degradation) | A (Category A: A ≥ 75% degradation) | A (Category A: A ≥ 75% degradation)
CN1CCC[C@@H]1c1cc2cnc(NC(=O)c3ccc(CCCN4CCN(c5cccc6c5C(=O)N(C5CCC(=O)NC5=O)C6=O)CC4)cc3)cc2[nH]1 (stereo partly drawn) [Example 130, 4-(3-(4-(2-(2,6-dioxopiperidin-3-yl)-1,3-dioxoisoindolin-4-yl)piperazin-1-yl)propyl)-N-(2-((R)-1-methylpyrrolidin-2-yl)-1H-pyrrolo[3,2-c]pyridin-6-yl)benzamide] | B (Category B: 50% ≤ B < 75% degradation) | A (Category A: A ≥ 75% degradation) | A (Category A: A ≥ 75% degradation)
CN1CCC[C@@H]1c1cc2cnc(NC(=O)c3ccc(N4CCC(OC5CCN(c6cccc7c6C(=O)N(C6CCC(=O)NC6=O)C7=O)CC5)CC4)cc3)cc2[nH]1 (stereo partly drawn) [Example 136, 4-(4-((1-(2-(2,6-dioxopiperidin-3-yl)-1,3-dioxoisoindolin-4-yl)piperidin-4-yl)oxy)piperidin-1-yl)-N-(2-((R)-1-methylpyrrolidin-2-yl)-1H-pyrrolo[3,2-c]pyridin-6-yl)benzamide] | C (Category C: 25% ≤ C < 50% degradation) | B (Category B: 50% ≤ B < 75% degradation) | B (Category B: 50% ≤ B < 75% degradation)
CN1CCC[C@@H]1c1cc2cnc(NC(=O)c3ccc(N4CCC(OC5CCN(c6ccc7c(c6)CN(C6CCC(=O)NC6=O)C7=O)CC5)CC4)nc3)cc2[nH]1 (stereo partly drawn) [Example 139, 6-(4-((1-(2-(2,6-dioxopiperidin-3-yl)-1-oxoisoindolin-5-yl)piperidin-4-yl)oxy)piperidin-1-yl)-N-(2-((R)-1-methylpyrrolidin-2-yl)-1H-pyrrolo[3,2-c]pyridin-6-yl)nicotinamide] | B (Category B: 50% ≤ B < 75% degradation) | B (Category B: 50% ≤ B < 75% degradation) | B (Category B: 50% ≤ B < 75% degradation)
CN1CCC[C@@H]1c1cc2cnc(NC(=O)c3ccc(N4CCC(OCC5CCN(c6cccc7c6CN(C6CCC(=O)NC6=O)C7=O)CC5)CC4)cc3)cc2[nH]1 (stereo partly drawn) [Example 146, 4-(4-((1-(2-(2,6-dioxopiperidin-3-yl)-1-oxoisoindolin-4-yl)piperidin-4-yl)methoxy)piperidin-1-yl)-N-(2-((R)-1-methylpyrrolidin-2-yl)-1H-pyrrolo[3,2-c]pyridin-6-yl)benzamide] | B (Category B: 50% ≤ B < 75% degradation) | B (Category B: 50% ≤ B < 75% degradation) | B (Category B: 50% ≤ B < 75% degradation)
